The source of these data is patent US6436997B1, “Endogenous nitric oxide synthesis under conditions of low oxygen tension” (NitroMed, Inc., priority 1998, dated 2002).

The test system of one data set is rat aortic segments. Kind of data set: Relaxation of norepinephrine-contracted rat aortic segments from non-diabetic and diabetic rats. The class given is cell-based. Conditions: for effect on acetylcholine induced relaxation of aorta segments / effect on acetylcholine induced relaxation of aortic rings: 10 μM test drug, 10 nM-10 μM ACh, normoxia; for effect on acetylcholine induced relaxation of aorta segments: diabetic rats, FIG. 10B; for effect on acetylcholine induced relaxation of aortic rings: non-diabetic rats, FIG. 10A. Here is the method: Diabetes was induced in rats by the administration of a single injection of steptozotocin (60 mg/kg; i.p). Diabetic rats remained untreated for a total of 8 weeks. […] Rats were anesthetized with diethyl ether and exsanguinated. The thoracic aorta was then removed and the tissue dissected free from the surrounding periadventitial fat and connective tissue, taking precautions to avoid touching the luminal surface. The tissue was cut into 8 segments, each approximately 3-4 mm in length. Rat aortic segments were maintained at 4-6° C. Krebs-bicarbonate buffer (composition per millimolar: NaCl, 120; KCl, 5.6; MgCl2, 1.2; NaH2PO4, 1.2; dextrose, 10; NaHCO3, 25; CaCl2 2.5; pH 7.4) until used. Aortic segments were typically used between 2 and 16 hrs from extraction. […] Each aortic tissue strip was submitted to 1.5 g of resting tension. […] The aortic segments were then contracted with submaximal concentration of norepinephrine and the contraction as allowed to reach a steady state level. Once a steady state of muscle tension was reached, the tissue was exposed to various concentrations of test compounds and the relaxation responses were recorded. Relaxation responses were expressed as a percentage of total relaxation induced by a supramaximal addition of papaverine (total loss of tone) at the end of the experiment. In FIGS. 7-12, the data are expressed as mean±standard mean error.

Data set [1] has as its system rabbit corpus cavernosum tissue. Kind of data set: Relaxation of phenylephrine-contracted corpus cavernosum tissue strips in organ chambers. The class given is cell-based. Conditions: for effect on N-hydroxy-L-arginine induced relaxation / effect on hydroxylamine induced relaxation: 20% O2; for effect on hydroxylamine induced relaxation: increasing hydroxylamine. The method, then:
(§1) Rabbits were euthanized with an overdose of intravenous pentobarbital (60 mg/kg) and immediately exsanguinated. The entire penis was then removed and the corpus cavernosum tissue dissected free from the surrounding tunica albuginea and cut into strgips (3×3×7 mm). Corpus cavernosum tissues were maintained at 4-6° C. in M-400 solution (composition per 100 ml: mannitol, 4.19 g; KH2PO4, 0.205 g; K2HPO4.3H2O, 0.97 g; KCl, 0.112 g; NaHCO3, 0.084 g) until used. Corpus cavernosum tissues were typically used between 2 and 16 hrs from extraction.
Corpus cavernosum tissue was prepared as described in Example 1. For experimentation to measure relaxation of the tissue under various conditions, the corpus cavernosum tissues were then suspended in 10 ml organ chambers and bathed in a physiological salt solution, maintained at 37° C. and aerated with 5% CO2/95% air, pH 7.4. Each corpus cavernosum tissue strip was incrementally stretched to optimal isometric tension as determined by the maximal contractile response to 1 μM phenylephrine. After several exchanges of fresh physiological solution, the media was bubbled with gas mixtures containing 5% CO2, the indicated amount of oxygen (between 0% and 20%) and the remaining percentage was N2, for thirty minutes. Corpus cavernosum tissues were then contracted with a submaximal concentration of phenylephrine, and the contraction was allowed to reach a steady state level. Once a steady state of muscle tension was reached, the tissue was exposed to various concentrations of test compounds, and the relaxation responses were recorded. Relaxation responses were expressed as a percentage of total relaxation induced by a supramaximal addition of papaverine (total loss of tone) at the end of the experiment. The data in FIGS. 3-6 are expressed as mean±standard mean error

The test system is the same in data set [2]. Kind of data set: cGMP production (basal and acetylcholine stimulated) by corpus cavernosum tissue strips, ELISA. It counts as cell-based. To be noted: for cGMP concentration in acetylcholine stimulated tissue compared to basal values (ACh alone): 300 μM test drug + 30 μM ACh, under normoxia (20% O2) and hypoxia (0% O2), FIGS. 2A/2B; for basal cGMP production: normoxic (20% O2), vs vehicle control, FIG. 1. The method, then:
as §1
Measurement of cyclic GMP in corpus cavernosal tissues was carried out as follows. Corpus cavernosal tissue strips were immersed in a 10 ml organ chamber containing physiological salt solution, maintained at 37° C. and aerated with 5% CO2/95% air, pH 7.4. Each strip was incrementally stretched to optimal isometric tension, as determined by maximal contractile responses to 1 μM phenylephrine ((R)-3-hydroxy-α-[(methylamino)methyl]-benzenemethanol hydrochloride). The physiological salt solution was then replaced with one bubbled with either 20% oxygen or 0% oxygen and the tissues were then given 0.5 μM phenylephrine, 30 μM Zaprinast and 100 μM IBMX (3-isobutyl-1-methylxanthine, […]) and incubated for 15 minutes; after which time each tissue was incubated with the test drug (or control drug) at various concentrations or with vehicle (the buffer in which the drugs are delivered). Tissues were incubated for another 5 minutes then immediately frozen in liquid nitrogen and stored at −80° C. until extraction for cyclic nucleotide assay. Tissues were extracted by homogenization in 6% trichloroacetic acid followed by ether (H2O-saturated) extraction and lyophilization. cGMP levels were determined by ELISA using a kit from Cayman Chemical Co. (Ann Arbor, Mich.).
Protein concentration in the corpus cavernosum tissue was determined using the Bio-Rad Protein Assay Kit microtiter plate assay procedure (Bio-Rad, Hercules, Calif.) with bovine serum albumin as the standard.
For orientation: An ELISA detects its analyte on a solid surface through an enzyme-linked reagent.

In data set [3] the test system is left hindlimb of autoperfused non-diabetic or diabetic rats. Kind of data set: Vasoactive response (hindlimb perfusion pressure) of anesthetized autoperfused rats. Conditions: bolus infusion 0.1-10 mg/kg, pressure elevated by norepinephrine 2 μg/min/kg, FIGS. 12A/12B. It counts as in vivo, rat. Here is the method: The left hindlimb of the anesthetized rats were perfused through the femoral artery at a constant rate of 3.3 ml/min/kg with blood from the carotid artery by means of a peristaltic pump. The vasoactive response induced by the bolus infusion of increasing concentrations of L-arginine or N-hydroxy-L-arginine into the left hindlimb of autoperfused non-diabetic or diabetic rats was determined by measuring the change in the perfusion pressure, which was previously elevated by a norepinephrine constant infusion (2 μg/min/kg).

For data set [4] the following is noted: estimated; cited from earlier work.
The mark [5] stands for this setting: 0.1 mM L-NNA or 0.02 mM ODQ, increasing N-hydroxy-L-arginine, FIG. 4A.
The mark [6] stands for this setting: 0.1 mM L-NNA or 0.02 mM ODQ, FIG. 4B.

Molecules are shown by their SMILES.

For the compound `COC(=O)[C@@H](N)CCCNC(=N)N[N+](=O)[O-]` [L-NAME, N^G-nitro-L-arginine methyl ester], in the data set with rat aortic segments (10 μM inhibitor, normoxic, non-diabetic and diabetic rats, FIGS. 9A/9B), the “effect on N-hydroxy-L-arginine induced relaxation of aorta segments” value is given as “significantly decreased the measured relaxation”.
Take `N=C(NCCC[C@H](N)C(=O)O)N[N+](=O)[O-]` [L-NNA, N^G-nitro-L-arginine]: the “effect on N-hydroxy-L-arginine induced relaxation” value in data set [1] (0.1 mM L-NNA added together with 0.1 mM miconazole, FIG. 3) is given as “does decrease the effectiveness of N-hydroxy-L-arginine to relax the tissue”; in data set [1] (setting [5]), “significantly decreased the measured relaxation”. Further, the “effect on hydroxylamine induced relaxation” value in data set [1] (setting [6]) is on record as “had no effect”.
In the case of `N=C(N)NCCC[C@H](N)C(=O)O` [L-arginine], in data set [2], the “cGMP concentration in acetylcholine stimulated tissue compared to basal values (ACh alone)” value was “not effective to statistically increase the concentration of cGMP”. In addition, the “basal cGMP production” value in data set [2] (300 μM test drug) was “stimulated cGMP production approximately equally”. Moreover, the “tissue relaxation at 1 mM” value in data set [1] (oxygen concentrations of 0%, 1%, 2% and 5% (data not shown)) is on record as “no measurable effect on tissue relaxation”. In the data set on rat aortic segments, the “effect on acetylcholine induced relaxation of aorta segments” value was “resulted in a decreased relaxation” and the “effect on acetylcholine induced relaxation of aortic rings” value was “do not effect the relaxation of aortic rings”. Besides, the “change in hindlimb perfusion pressure, non-diabetic versus diabetic rats” value in data set [3] is recorded as “the pressure change was greater for the non-diabetic rats compared to diabetic rats”.
`NC(=NCCC[C@H](N)C(=O)O)NO` [N-hydroxy-L-arginine, N^G-hydroxy-L-arginine]: the “basal cGMP production” value in data set [2] (30 μM test drug) is on record as “stimulated cGMP production approximately equally”. For the same compound, the “cGMP concentration in acetylcholine stimulated tissue compared to basal values (ACh alone)” value in data set [2] is reported as “statistically significant increase in the concentration of cGMP”. Moreover, in data set [2] (300 μM test drug), the “basal cGMP production” value is “effective to stimulate a higher concentration of cGMP production”. Further, in data set [1] (all oxygen concentrations (0%, 1%, 2%, 5%, 20%), FIG. 6), the “tissue relaxation at 1 mM” value is “significant relaxation of the tissue”. Besides, the “induced relaxation, diabetic versus non-diabetic aortic segments” value in the data set with rat aortic segments (1 μM, 95% O2, FIG. 8) is on record as “more effective in inducing the relaxation of aortic segments obtained from diabetic rats”. For the same compound, in the data set with rat aortic segments, the “effect on acetylcholine induced relaxation of aorta segments” value is recorded as “increased the relaxation” and the “effect on acetylcholine induced relaxation of aortic rings” value is reported as “do not effect the relaxation of aortic rings”. Further, the “induced relaxation of aortic segments compared with L-arginine” value in the data set on rat aortic segments (95% O2, 100 nM-100 μM, non-diabetic and diabetic rats, FIGS. 7A/7B) was “more effective in inducing relaxation in both non-diabetic and diabetic rats”. For the same compound, in data set [3], the “change in hindlimb perfusion pressure, non-diabetic versus diabetic rats” value is on record as “no difference in the perfusion pressure”.
Regarding `O=c1onc2cnc3ccccc3n12` [ODQ, 1H-[1,2,4]oxadiazolo[4,3,a]quinoxalin-1-one], the “effect on N-hydroxy-L-arginine induced relaxation” value in data set [1] (setting [5]) is “significantly decreased the measured relaxation”. The “effect on hydroxylamine induced relaxation” value in data set [1] (setting [6]) is given as “significantly decreased the relaxation”.
As for `NO` [hydroxylamine], in data set [1] (20% O2, 1 nM to 1000 μM, FIG. 4B), the “relaxation of corpus cavernosum tissue by the substance itself” value is given as “induces the relaxation of the tissue”.
`Clc1ccc(COC(Cn2ccnc2)c2ccc(Cl)cc2Cl)c(Cl)c1` (stereo not drawn) [miconazole]: the “effect on N-hydroxy-L-arginine induced relaxation” value in data set [1] (0.1 mM miconazole, increasing N-hydroxy-L-arginine 1-1000 μM, FIG. 3) is recorded as “does not significantly effect the relaxation of the tissues”.
Take `[N]=O` [nitric oxide]: the “half-life in biological tissues” value in data set [4] was “less than one second”.
